Experimental findings from US20240059729A1, “MULTIFUNCTIONAL CYCLIC DINUCLEOTIDE AND USE THEREOF” (TYLIGAND BIOSCIENCE (SHANGHAI) LIMITED, priority 2020, published 2024) are described below.

Where a name gives a salt, the structure may show the parent alone. A value given as a limit tells only on which side of the number the result lay.

In general, EC50 refers to the concentration giving half of the maximal effect. A word on the IC50: it is the concentration that inhibits the measured activity by half. Read a high IC50 as weaker potency in that assay.

One assay has as its system IFN-β secretion by THP-1 cells. In words: Activation of IFN-β secretion by THP-1 cells (Human IFN-beta ELISA). Conditions: Homo sapiens, THP-1, 24 h, THP-1 cells, 24 hours, IFN-β ELISA. It counts as cell-based. The method, then:
THP-1 cell, a human monocytic leukemia cell line, has the STING phenotype of HAQ type, i.e., R71H-G230A-R293Q. This assay used the Human IFN-beta DuoSet ELISA Kit from R & D (R & D, Cat #DY814-05) and the DuoSet ELISA Ancillary Reagent Kit 2 (R & D, Cat #DY008) to evaluate the activation of IFN-β secretion from THP-1 cells by representative compounds of the invention.
In thawing the THP-1 cells (ATCC #TIB-202), a cell freezing tube was quickly shaken in a water bath at 37° C. to thaw the cells within 1 min. The thawed cell suspension was taken and evenly mixed with an RPMI1640 medium (Hyclone, product #SH30027.01) containing 10% FBS (Life Technology, Cat #10099-141), centrifuged for 5 min at 1000 rpm, and the supernatant was discarded. The cell pellet was resuspended in 5 mL of the complete medium (RPMI 1640 medium containing 10% FBS), placed into a cell culture flask with a bottom area of 25 cm^2, and incubated in a cell incubator at 37° C., 5% CO2 and 95% humidity. When the cell confluence reached about 80%, the cells were passaged. All the cells in the culture flask were transferred to a 15 mL centrifuge tube, centrifuged for 5 min at 1000 rpm, and the supernatant was discarded. 5 mL of fresh complete medium was added to re-suspend the cell pellet, 1 mL of which was taken to place in a cell culture flask with a bottom area of 25 cm^2, supplemented with 4 mL of fresh complete medium for further incubation. When the cell confluence reached about 80% again, plating was conducted following the procedure of cell passage, retaining 1/5 cell suspension for further inculation and remaining 4/5 of the cell suspension in a 15 mL centrifuge tube. The cell suspension was centrifuged to discard the old culture medium, washed once using RPMI1640 culture medium (serum-free), and centrifuged to remove the supernatant. The cells were then re-suspended in RPMI1640 culture medium (serum-free). Cell viability was then detected by Trypan blue exclusion test and to be used for plating when the cell viability was confirmed to be more than 95%. A cell suspension with a density of 1.1×10^6 viable cells/mL was prepared using RPMI1640 culture medium (serum-free), and 180 μL of the cell suspension was added to a 96-well cell culture plate (NUNC Company, Cat #167008) so that the cell density in the plate was 2×10^5 viable cells/well.
(§1) A 10 mM stock solution of the compounds in DMSO was first serially diluted at 3.16-fold with DMSO (Sigma, Cat #D2650) to the 5th concentration, and the 6th concentration was set as DMSO control (compound-free). Then, the DMSO solutions containing different concentrations of the compounds were diluted at 10-fold with PBS so that the DMSO content in each compound solution of various concentrations was 10%. Finally, 20 μL of each of such solutions was added into corresponding cell culture plate to provide an initial compound concentration of 100 μM, with the dilution fold of adjacent concentrations being 3.16 and the DMSO content in the cell culture plate being 1%. The cell plate was placed in a cell incubator for further 24 hours.
ELISA detection was conducted referring to the instructions from R & D System, Cat #DY814-05.
ELISA plate coating: PBS (R & D System Cat #DY006) was used to dilute the capture antibody (mouse anti-human IFN-β capture antibody PART #844508) to provide the working concentration, and 100 μL capture antibody working solution was added to a 96-well ELISA plate which was then sealed and incubated overnight at room temperature. Upon discarding the capture antibody working solution, the cell plate was washed 3 times with a washing buffer (0.05% Tween-20 in PBS, pH 7.2-7.4, R & D System Cat #WA126) at 400 μL of the washing buffer per well, and the washing buffer was thoroughly removed after each washing, with the final washing to be completely removed of the wash buffer by inverting and claping the plate to a clean piece of paper. […]
Consider `Nc1nc2c(ncn2[C@@H]2O[C@@H]3CO[P@@](=O)(S)OC4C(F)[C@H](n5cnc6c(N)nc(Cl)nc65)O[C@@H]4CO[P@](=O)(S)OC2C3O)c(=O)[nH]1` (stereo partly drawn) [Example 8, (2′,3′)-cyclo-(Sp,Rp)-[2′-O-phosphorothioate-diester-guanosine]-[3′-O-phosphorothioate-diester-2-chloro-2′-deoxy-2′-fluoro-beta-adenosine] diammonium salt], for which the EC50 was in the range of 10.1 to 100 µM.

`Nc1nc2c(ncn2[C@@H]2O[C@@H]3CO[P@](=O)(S)OC4C(F)[C@H](n5cnc6c(N)nc(Cl)nc65)O[C@@H]4CO[P@](=O)(S)OC2C3O)c(=O)[nH]1` (stereo partly drawn) [Example 9, (2′,3′)-cyclo-(Sp,Sp)-[2′-O-phosphorothioate-diester-guanosine]-[3′-O-phosphorothioate-diester-2-chloro-2′-deoxy-2′-fluoro-beta-adenosine] diammonium salt] gave an EC50 of 10.1 to 100 µM.

`Nc1nc2c(ncn2[C@@H]2O[C@@H]3CO[P@@](=O)(S)OC4C[C@H](n5cnc6c(N)nc(Cl)nc65)O[C@@H]4CO[P@](=O)(S)OC2C3O)c(=O)[nH]1` (stereo partly drawn) [Example 11, (2′,3′)-cyclo-(Sp,Rp)-[2′-O-phosphorothioate-diester-guanosine]-[3′-O-phosphorothioate-diester-2-chloro-2′-deoxy-adenosine] diammonium salt] had a half-maximal effective concentration (EC50) of 10.1 to 100 µM.

Regarding `Nc1nc(Cl)nc2c1ncn2[C@@H]1O[C@@H]2CO[P@@](=O)(S)OC3[C@@H](CO[P@@](=O)(S)O[C@@H]2C1F)O[C@@H](n1cnc2c(N)ncnc21)[C@H]3F` (stereo partly drawn) [Example 18, (3′,3′)-cyclo-(Rp,Rp)-[3′-O-phosphorothioate-diester-2′-deoxy-2′-fluoroadenosine]-[3′-O-phosphorothioate-diester-2-chloro-2′-deoxy-2′-fluoro-beta-adenosine]-0.5-ammonium-1.5-1,8-diazabicycloundec-7-ene-salt], the EC50 fell in the range of 10.1 to 100 µM.

`Nc1ncnc2c1ncn2[C@@H]1O[C@@H]2CO[P@@](=O)(S)O[C@@H]3C[C@H](n4cnc5c(N)nc(Cl)nc54)O[C@@H]3CO[P@@](=O)(S)OC2[C@@H]1F` (stereo partly drawn) [Example 19, (3′,3′)-cyclo-(Rp,Rp)-[3′-O-phosphorothioate-diester-2′-deoxy-2′-fluoroadenosine]-[3′-O-phosphorothioate-diester-2-chloro-2′-deoxyadenosine] 0.5-1,8-diazabicycloundec-7-ene-salt] yielded a half-maximal effective concentration (EC50) of 10.1 to 100 µM.

Turning to `Nc1nc2c(ncn2[C@@H]2O[C@@H]3CO[P@@](=O)(S)OC4C[C@H](n5cnc6c(N)nc(Cl)nc65)O[C@@H]4CO[P@@](=O)(S)OC3C2F)c(=O)[nH]1` (stereo partly drawn) [Example 21, (3′,3′)-cyclo-(Rp,Rp)-[3′-O-phosphorothioate-diester-2′-deoxy-2′-fluoroguanosine]-[3′-O-phosphorothioate-diester-2-chloro-2′-deoxyadenosine] diammonium salt], the EC50 lay in the range of 10.1 to 100 µM.

Consider `CNc1nc(N)c2ncn([C@@H]3O[C@@H]4CO[P@@](=O)(S)O[C@H]5C(O)[C@@H](CO[P@@](=O)(S)O[C@@H]4C3F)O[C@H]5n3cnc4c(=O)[nH]c(N)nc43)c2n1` (stereo partly drawn) [Example 26, (2′,3′)-cyclo-(Rp,Rp)-[2′-O-phosphorothioate-diester-guanosine]-[3′-O-phosphorothioate-diester-2-methylamino-2′-deoxy-2′-fluoro-beta-adenosine] diammonium salt], for which the half-maximal effective concentration (EC50) lay in the range of 1 to 10 µM.

The same assay, now with this note: THP-1 cells, 24 hours, IFN-β ELISA.
Consider `Nc1nc2c(ncn2[C@@H]2O[C@@H]3COP(=O)(O)O[C@H]4[C@@H](O)[C@H](n5cnc6c(N)ncnc65)O[C@@H]4COP(=O)(O)O[C@@H]2[C@@H]3O)c(=O)[nH]1` [2′,3′-cGAMP, cGAMP, reference compound], for which the EC50 fell in the range of 10.1 to 100 µM.

Staying with this assay, now noted: THP-1 cells, 24 hours, IFN-β ELISA; diammonium salt.
In the case of `Nc1nc2c(ncn2[C@@H]2O[C@@H]3CO[P@@](=O)(S)OC4C(F)[C@H](n5cnc6c(N)nc(Cl)nc65)O[C@@H]4CO[P@](=O)(S)OC3C2O)c(=O)[nH]1` (stereo partly drawn) [Example 15, (3′,3′)-cyclo-(Sp,Rp)-[3′-O-phosphorothioate-diester-guanosine]-[3′-O-phosphorothioate-diester-2-chloro-2′-deoxy-2′-fluoro-beta-adenosine] diammonium salt], the EC50 was 10.1 to 100 µM.

The next assay deals with CT26 cells. The assay is described as follows: Inhibition of proliferation of CT26 cells (CellTiter-Glo). The format is cell-based, mouse. Conditions: Mus musculus, 120 hours, CellTiter-Glo. The method, then:
CT26 cell is a mouse colorectal cancer cell line. This assay used the CellTiter-Glo Luminescence Cell Vitality Assay kit from Promega to evaluate the inhibitory activity of the compounds on the proliferation of CT26 cells.
In thawing the CT26 cells (ATCC #CRL-2638), a cell freezing tube was quickly shaken in a water bath at 37° C. to thaw the cells within 1 min. The thawed cell suspension was taken and evenly mixed with DMEM medium (GE, Cat #SH30243.01) containing 10% FBS (GIBCO, Cat #10099-141), centrifuged for 5 min at 1000 rpm, and the supernatant was discarded. The cell pellet was resuspended in 5 mL of the complete medium (DMEM medium containing 10% FBS), placed into a cell culture flask with a bottom area of 25 cm^2, and incubated in a cell incubator at 37° C., 5% CO2 and 95% humidity. When the cell confluence reached 70%˜80%, the cells were passaged. All the cells in the culture flask were transferred to a 15 mL centrifuge tube, centrifuged for 5 min at 1000 rpm, and the supernatant was discarded. 5 mL of fresh complete medium was added to re-suspend the cell pellet, 1 mL of which was taken to place in a cell culture flask with a bottom area of 25 cm^2, supplemented with 4 mL of fresh complete medium for further incubation. When the cell confluence reached 70%-80% again, plating was conducted following the procedure of cell passage, retaining 1/5 cell suspension for further inculation and remaining 4/5 of the cell suspension in a 15 mL centrifuge tube.
The cell suspension was centrifuged to discard the old culture medium, washed once using DMEM medium (serum-free), and centrifuged to remove the supernatant. The cells were then re-suspended in DMEM medium (serum-free). Cell viability was then detected by Trypan blue exclusion test and to be used for plating when the cell viability was confirmed to be more than 95%. A cell suspension with a density of 1.1×10^4 viable cells/mL was prepared using DMEM medium (serum-free), and 90 μL of the cell suspension was added to a 96-well 96-well transparent flat-bottomed black-walled cell culture plate (Corning, Cat #3603) so that the cell density in the plate was 1000 viable cells/well. A control group containing no cells, no compound, and complete medium only (i.e., a culture medium control), and a control group containing no compound but cells (i.e., a cell control) were set. The cell plates were placed in a cell incubator overnight.
as §1, with “9th” for “5th”, “10th” for “6th”, “PBS (Solarbio, Cat #P1020)” for “PBS”, “10” for “20”, “120” for “24”
After 120 hours, the CellTiter-Glo reagent (Promega, Cat #G7572) was thawed and the plates were equilibrated at room temperature for 30 min. 100 uL of CellTiter-Glo was added to each well of the plate, and the cells were lysed thoroughly by shaking on an orbital shaker for 5 min. The plates were placed at room temperature for 20 min to stabilize the luminescence signal, and the luminescence value of each well was scanned at full wavelength with a multifunctional microplate reader (Molecular Devices, Spectramax M3). […]
For orientation: Cellular ATP, detected with luciferase, serves as a proxy for viable cell number.
With `Nc1nc(Cl)nc2c1ncn2[C@H]1C[C@H](O)[C@@H](CO)O1` [Cladribine, cladribine, reference compound], the IC50 is below 1 µM.

`Nc1nc(Cl)nc2c1ncn2[C@@H]1O[C@H](CO)[C@@H](O)[C@@H]1F` [Clofarabine—, clofarabine, reference compound]: the IC50 was below 1 µM.

`Nc1nc(Cl)nc2c1ncn2[C@@H]1O[C@@H]2CO[P@@](=O)(S)OC3[C@@H](F)[C@H](n4cnc5c(N)nc(Cl)nc54)O[C@@H]3CO[P@@](=O)(S)O[C@@H]2C1F` (stereo partly drawn) [Example 1, (3′,3′)-cyclo-(Rp,Rp)-bis-[3′-O-phosphorothioate-diester-2-chloro-2′-deoxy-2′-fluoro-beta-adenosine]1.5-ammonium-0.5-1,8-diazabicycloundec-7-ene-salt]: the IC50 lay in the range of 1 to 10 µM.
